Data on 1 compound can be found in patent US9567347B2, “Use of small molecule inhibitors targeting the interaction between RAC GTPase and p67(phox)” (CHILDREN'S HOSPITAL MEDICAL CENTER, priority 2012, dated 2017).

In assay [1] the target is T1, p67^phox binding to Rac1V12 (Homo sapiens, UniProt P19878).
T1 construct: using the pET30-HIS p67(1-212) plasmid; His; made in house; host or cells: E. coli BL21(DE3) for p67phox
T1 sequence (P19878 1-212): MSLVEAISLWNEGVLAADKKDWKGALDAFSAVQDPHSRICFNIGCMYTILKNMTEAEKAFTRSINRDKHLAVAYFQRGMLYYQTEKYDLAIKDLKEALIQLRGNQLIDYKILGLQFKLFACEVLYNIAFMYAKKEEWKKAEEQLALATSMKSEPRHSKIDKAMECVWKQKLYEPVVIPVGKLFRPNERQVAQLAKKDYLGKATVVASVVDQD
Briefly: competition binding of p67phox with Rac1V12 by microscale thermophoresis. To be noted: 5 μM, 15 min prior to titration of Rac1V12. As for the experimental part:
Proteins were labeled for microscale thermophoresis using the Monolith NT Protein Labeling Kit Red (Nano Temper Technologies) as recommended by the manufacturer. Binding reactions were carried out using the Monolith NT. 115 (Nano Temper Technologies). Binding data was analyzed using Graphpad Prizm to estimate Kd values. The arbitrary fluorescence value from the thermophoresis plots for the smallest compound titration was subtracted from every other data point (Delta depletion) prior to normalization to a Vmax of 100. In thermophoresis plots where there was no binding, a curve could not be fit and therefore no Vmax could be assigned. In these instances the highest delta depletion value was set to 100 and all data were normalized accordingly.
Next, to perform a competition binding, p67^phox protein was first incubated with either 5 μM Phox-I1 or an equal volume of vehicle control for 15 min prior to titration of purified Rac1V12 protein. […] Thus, Phox-I1 binding to p67^phox is specific and not due to nonspecific effects, such as aggregation.
In general terms: MST reads how a fluorescent partner responds to local heating, with and without ligand.

Assay [2] has as its system primary murine neutrophils. The experiment in a line: H2-DCFDA FACS ROS production assay in primary murine neutrophils. It counts as cell-based, mouse. The conditions noted are these: 10 μM and 20 μM. How it is done:
HL-60 cells were propagated in RPMI 1640 medium containing 10% heat inactivated fetal bovine serum, 2 mM L-glutamine, 100 U/mL penicillin/streptomycin at 37° C. in air containing 5% CO2. For differentiation, HL-60 cells were cultured in 1.3% dimethyl sulfoxide (DMSO) as previously described (Servant, G., et al. (1999) Mol Biol Cell 10, 1163-1178, hereby incorporated by reference in its entirety). Primary murine neutrophils were isolated from C57Bl/6 mouse bone marrow according to a published protocol (Filippi et al., (2004) Nat Immunol 5, 744-751, hereby incorporated by reference in its entirety) using a discontinuous Percoll (Pharmacia) gradient and were utilized immediately in experiments. […]
Cells (5×10^5) were harvested and processed for Annexin V/7AAD staining according to manufacturer's protocol (Becton Dickinson). Flow cytometry data were acquired on a FACS Canto bench-top flow cytometer (Becton Dickinson) and the cell cycle distributions were determined by […] using Flo-Jo software (Bosco et al (2010) Blood 115, 3320-3328, hereby incorporated by reference in its entirety). […] Cells were then stimulated with 10 μM fMLP (Sigma), 1 mM CaCl2, and 1.5 mM MgCl2 for 15 minutes prior to wash and FACS analysis for mean fluorescence intensity. […]

Turning to `COc1ccc2c(c1)C1C=C(c3ccccc3)NN1C(c1cccc([N+](=O)[O-])c1)O2` (centres unmarked) [Phox-I1], in assay [1], the “competition with Rac1V12 for p67^phox” value is “disruption of p67^phox binding to Rac1V12”. The “inhibition of fMLP-stimulated ROS production” value in assay [2] is recorded as “able to inhibit ROS production nearly as well as DPI at 100 μM concentration”.
